Measured values as given in patent publication US11642349B2, “Method for treating cancer” (Epizyme, Inc., priority 2015, dated 2023).

Legend:
MRT xenograft = assay: MRT xenograft-bearing mice; format: in vivo
oral bioavailability = conditions: in vivo
[1] = test system: INI1-deleted malignant rhabdoid tumor (MRT) models; assay: INI1-deleted malignant rhabdoid tumor (MRT) models in vitro; format: cell-based

With `CCN(c1cc(-c2ccc(CN3CCOCC3)cc2)cc(C(=O)NCc2c(C)cc(C)[nH]c2=O)c1C)C1CCOCC1` [EPZ-6438] the apoptosis and differentiation (MRT xenograft) was “induce apoptosis and differentiation”, the oral bioavailability (oral bioavailability) was “orally bioavailable” and the apoptosis and differentiation [1] was “induce apoptosis and differentiation”.
